From patent publication US10501479B2, “Benzenesulfonyl-asymmetric ureas and medical uses thereof” (HELSINN HEALTHCARE SA, priority 2016, dated 2019)
Several values for one entry are separate records, joined by “and”; a condition that tells them apart may be missing. Identical values can stand only once. Like-named read-outs stand apart in the source and are kept apart here.

Legend:
[1] = Animal PK study in mouse via i.v., p.o. and s.c. administration; assay type: in vivo; conditions: for Vd / clearance / half-life: plasma; for clearance: read-out: PK CL i.v.
Method in brief: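 Plasma drug levels were measured by LC-MS/MS after acetonitrile precipitation, with blood drawn up to 24 h post-dose (from 0.083 h i.v./s.c., 0.25 h oral) in mice or rats. Animals received one dose by gavage in DMSO/methylcellulose, or by tail-vein or subcutaneous injection in DMSO/HP-β-cyclodextrin.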

[2] = Plasma protein binding (PPB), human; assay type: in vitro ADME; conditions: read-out: PPB (H) (converted)
[3] = target: T1, recombinant human ghrelin receptor (HEK293/GRLN) (Homo sapiens, UniProt Q92847); assay: Ghrelin inverse agonist potency (EC50) with IP-1 (IP-One HTRF) assay; assay type: cell-based; conditions: IP-1 assay, HEK293/GRLN; read-out: Activity EC50 (ghrelin inverse agonist potency)
T1 construct: expressed in transfected cells
Method in brief: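 IP-1 accumulation was measured by HTRF (IP1-d2/Tb-cryptate, 620/665 nm read after 1 hour at room temperature) following 1 hour of compound treatment at 37° C. Cells were HEK293 stably expressing human ghrelin receptor, plated a day earlier on Matrigel. Inverse agonist potency was reported as EC50.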

[4] = Metabolic stability in mouse liver microsomes; assay type: in vitro ADME
Method in brief: (§1)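 Loss of parent over time in microsomal incubations at 37 °C with NADPH regeneration, sampled up to 90 min and read by LC-MS/MS.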

[5] = Plasma protein binding (PPB), mouse; assay type: in vitro ADME
[6] = target: T2, GHSR-1a (HEK293/GHSR1a cell line) (Homo sapiens, UniProt Q92847); assay: Ghrelin antagonist potency (IC50) with calcium FLIPR assay, ghrelin 10 nM; assay type: cell-based; conditions: HEK293/GHSR1a, ghrelin 10 nM, read-out: Activity IC50 (ghrelin antagonist potency)
T2 construct: expressed in transfected cells; host or cells: HEK293/GHSR1a cell line
Method in brief: (§2)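 In this assay, compound alone assesses agonism, while compound co-added with ghrelin at 10 nM assesses antagonism. In both modes the calcium-dye signal is tracked for 2 min from t=20 sec.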

[7] = Metabolic stability in human liver microsomes; assay type: in vitro ADME
Method in brief: as §1

[8] = target: T2, GHSR-1a (HEK293/GHSR1a cell line); assay: Ghrelin agonist potency (EC50) with calcium FLIPR assay; assay type: cell-based; conditions: HEK293/GHSR1a, read-out: Activity EC50/EMax: EC50 (ghrelin agonist potency)
Method in brief: as §2

[9] = iv, 5 mg/kg, i.v., read-out: PK t1/2 i.v.
[10] = po, 10 mg/kg, p.o., read-out: PK t1/2 p.o.

T1 sequence (Q92847 whole entry): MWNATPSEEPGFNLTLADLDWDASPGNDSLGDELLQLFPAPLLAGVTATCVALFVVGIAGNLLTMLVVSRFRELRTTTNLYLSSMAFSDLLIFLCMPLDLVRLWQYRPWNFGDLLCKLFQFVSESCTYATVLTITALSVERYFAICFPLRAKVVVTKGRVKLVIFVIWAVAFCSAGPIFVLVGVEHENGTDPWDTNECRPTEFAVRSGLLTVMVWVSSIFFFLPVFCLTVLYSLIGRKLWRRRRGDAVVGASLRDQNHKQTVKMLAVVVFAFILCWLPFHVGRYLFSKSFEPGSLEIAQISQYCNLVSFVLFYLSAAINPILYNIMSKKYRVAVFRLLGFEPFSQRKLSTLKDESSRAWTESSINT
T2 sequence (Q92847 whole entry): as above

Structure (SMILES): CC(NC(=O)Nc1ccc(S(=O)(=O)Cc2ccc3c(c2)CNC3)cc1)c1ccc(F)cc1 (stereo not shown) [H1262, 1-(1-(4-fluorophenyl)ethyl)-3-(4-((isoindolin-5-ylmethyl)sulfonyl)phenyl)urea]
- PK F [1]: 1.13%
- PK CL p.o. ([1]; p.o.): 1847 mL/min/kg
- PK Vd p.o. ([1]; p.o.): 307 L/kg
- Vd ([1]; iv, 5 mg/kg): 1.69 L/kg
- clearance ([1]; iv, 5 mg/kg, i.v.): 21.8 mL/min/kg
- half-life [1, 9]: 0.89 h
- half-life [1, 10]: 1.92 h
- fraction unbound [2]: 0.099
- EC50 [3]: 7.5 nM
- Metabolic Stability Study M = mouse [4]: 11.2 µL/min/mg
- fraction unbound [5]: 0.05
- IC50 [6]: 10.6 nM
- Metabolic Stability Study H = human [7]: 18.2 µL/min/mg
- EC50 [8]: > 30000 nM

Structure (SMILES): C[C@H](NC(=O)Nc1ccc2c(c1)CC(c1ccc3c(c1)CNC3)S2(=O)=O)c1ccccc1 (stereo partly drawn) [H1264, 1-(2-(isoindolin-5-yl)-1,1-dioxido-2,3-dihydrobenzo[b]thiophen-5-yl)-3-((S)-1-phenylethyl)urea]
- PK F [1]: 0.36%
- PK Vd p.o. ([1]; p.o.): 627.9 L/kg
- Vd ([1]; iv, 5 mg/kg): 4.83 L/kg
- clearance ([1]; iv, 5 mg/kg, i.v.): 48.2 mL/min/kg
- half-life [1, 9]: 1.16 h
- half-life [1, 10]: 0.64 h
- fraction unbound [2]: 0.221
- Metabolic Stability Study M = mouse [4]: H < 10 M < 10 R = not reported D = not reported μL/min/mg
- fraction unbound [5]: 0.185
- IC50 [6]: 4.4 nM
- Metabolic Stability Study H = human [7]: H < 10 M < 10 R = not reported D = not reported μL/min/mg

Structure (SMILES): COc1cc(S(=O)(=O)Cc2ccc3c(c2)CN(C)C3)ccc1NC(=O)NC(C)c1ccccc1 (stereo not shown) [H1388, 1-(2-methoxy-4-(((2-methylisoindolin-5-yl)methyl)sulfonyl)phenyl)-3-(1-phenylethyl)urea]
- PK F [1]: 11.3%
- PK CL p.o. ([1]; p.o.): 675 mL/min/kg
- PK Vd p.o. ([1]; p.o.): 86.8 L/kg
- Vd ([1]; iv, 5 mg/kg): 6.3 L/kg
- clearance ([1]; iv, 5 mg/kg, i.v.): 77.7 mL/min/kg
- half-life [1, 9]: 0.93 h
- half-life [1, 10]: 1.49 h
- fraction unbound [2]: 0.031
- EC50 [3]: 4.6 nM
- Metabolic Stability Study M = mouse [4]: 42.4 µL/min/mg
- fraction unbound [5]: 0.079
- IC50 [6]: 10.2 nM
- Metabolic Stability Study H = human [7]: 58.1 µL/min/mg
- EC50 [8]: > 30000 nM

Structure (SMILES): COc1ccc([C@@H](C)NC(=O)Nc2ccc(S(=O)(=O)Cc3ccc4c(c3)CCN(C)C4)cc2)c(Cl)c1Cl [H1417, (R)-1-(1-(2,3-dichloro-4-methoxyphenyl)ethyl)-3-(4-(((2-methyl-1,2,3,4-tetrahydroisoquinolin-6-yl)methyl)sulfonyl)phenyl)urea]
- PK F [1]: 11.80%
- PK CL p.o. ([1]; p.o.): 226.8 mL/min/kg
- PK Vd p.o. ([1]; p.o.): 24.97 L/kg
- Vd ([1]; iv, 5 mg/kg): 4.74 L/kg
- clearance ([1]; iv, 5 mg/kg, i.v.): 26.2 mL/min/kg
- half-life [1, 9]: 2.09 h
- half-life [1, 10]: 1.27 h
- fraction unbound [2]: 0.0015
- EC50 [3]: 9.73 nM
- Metabolic Stability Study M = mouse [4]: 53.4 µL/min/mg
- fraction unbound [5]: 0.0012
- IC50 [6]: 45 nM
- Metabolic Stability Study H = human [7]: 48.9 µL/min/mg
- EC50 [8]: > 30000 nM

Structure (SMILES): COc1cc(S(=O)(=O)Cc2ccc3c(c2)CNC3)ccc1NC(=O)NC(C)c1ccccc1F.O=C(O)C(F)(F)F (stereo not shown) [H1420, 1-(1-(2-fluorophenyl)ethyl)-3-(4-((isoindolin-5-ylmethyl)sulfonyl)-2-methoxyphenyl)urea]
- fraction unbound [2]: 0.028
- EC50 [3]: 1 nM
- Metabolic Stability Study M = mouse [4]: 50.6 µL/min/mg
- fraction unbound [5]: 0.0461
- IC50 [6]: 22 nM
- Metabolic Stability Study H = human [7]: 17.4 µL/min/mg
- EC50 [8]: > 30000 nM

Structure (SMILES): COc1cc(S(=O)(=O)Cc2ccc3c(c2)CC(C)NC3)ccc1NC(=O)NC(C)c1ccccc1 (stereo not shown) [H1441, 1-(2-methoxy-4-(((3-methyl-1,2,3,4-tetrahydroisoquinolin-6-yl)methyl)sulfonyl)phenyl)-3-(1-phenylethyl)urea]
- fraction unbound [2]: 0.0245
- EC50 [3]: 4.3 nM and 3.3 nM
- Metabolic Stability Study M = mouse [4]: 16.4 µL/min/mg
- fraction unbound [5]: 0.045
- IC50 [6]: 14.9 nM and 40.4 nM
- Metabolic Stability Study H = human [7]: 17.3 µL/min/mg
- EC50 [8]: > 30000 nM
